Numbers after ± are expanded uncertainties.
Assay: Solid-liquid equilibrium temperature
Conditions: Crystal, visual observation

CCCCCCCCCCCCCCCC1CCCCC1 [cyclohexane, pentadecyl-]
Solid-liquid equilibrium temperature (100 kPa): 298.1 ± 1.1 K | Solid-liquid equilibrium temperature (19300 kPa): 302.6 ± 1.1 K | Solid-liquid equilibrium temperature (40000 kPa): 307.6 ± 1.1 K | Solid-liquid equilibrium temperature (60100 kPa): 312.3 ± 1.1 K | Solid-liquid equilibrium temperature (80300 kPa): 316.8 ± 1.1 K | Solid-liquid equilibrium temperature (100100 kPa): 320.8 ± 1.1 K

CCCCCCCCCCCCCC1CCCCC1 [cyclohexane, tridecyl-]
Solid-liquid equilibrium temperature (100 kPa): 286.9 ± 1.1 K | Solid-liquid equilibrium temperature (20000 kPa): 291.7 ± 1.1 K | Solid-liquid equilibrium temperature (40200 kPa): 296.3 ± 1.1 K | Solid-liquid equilibrium temperature (60000 kPa): 300.7 ± 1.1 K | Solid-liquid equilibrium temperature (80100 kPa): 304.9 ± 1.1 K | Solid-liquid equilibrium temperature (100000 kPa): 309.1 ± 1.1 K

CCCCCCCCCCC1CCCCC1 [decylcyclohexane]
Solid-liquid equilibrium temperature (100 kPa): 271.3 ± 0.5 K | Solid-liquid equilibrium temperature (20000 kPa): 276 ± 0.5 K | Solid-liquid equilibrium temperature (40100 kPa): 280.5 ± 0.6 K | Solid-liquid equilibrium temperature (59900 kPa): 284.8 ± 0.6 K | Solid-liquid equilibrium temperature (80100 kPa): 289.2 ± 0.6 K | Solid-liquid equilibrium temperature (100100 kPa): 293.9 ± 0.6 K

CCCCCCCCCCCCC1CCCCC1 [dodecylcyclohexane]
Solid-liquid equilibrium temperature (100 kPa): 285.8 ± 0.5 K | Solid-liquid equilibrium temperature (19500 kPa): 290.6 ± 0.6 K | Solid-liquid equilibrium temperature (39600 kPa): 295.2 ± 0.6 K | Solid-liquid equilibrium temperature (60900 kPa): 299.9 ± 0.6 K | Solid-liquid equilibrium temperature (79900 kPa): 304.2 ± 0.6 K | Solid-liquid equilibrium temperature (100000 kPa): 308.4 ± 0.6 K

CCCCCCCCCCCCCCCCCCCC1CCCCC1 [nonadecylcyclohexane]
Solid-liquid equilibrium temperature (100 kPa): 315.7 ± 0.7 K | Solid-liquid equilibrium temperature (19800 kPa): 320.6 ± 0.7 K | Solid-liquid equilibrium temperature (39500 kPa): 324.8 ± 0.7 K | Solid-liquid equilibrium temperature (59800 kPa): 329.2 ± 0.7 K | Solid-liquid equilibrium temperature (78000 kPa): 333.7 ± 0.7 K

CCCCCCCCCCCCCCCCCCC1CCCCC1 [octadecylcyclohexane]
Solid-liquid equilibrium temperature (100 kPa): 314.3 ± 1.1 K | Solid-liquid equilibrium temperature (20000 kPa): 319.3 ± 1.1 K | Solid-liquid equilibrium temperature (39900 kPa): 324.2 ± 1.1 K | Solid-liquid equilibrium temperature (59600 kPa): 328.8 ± 1.1 K

CCCCCCCCCCCCCCC1CCCCC1 [tetradecylcyclohexane]
Solid-liquid equilibrium temperature (100 kPa): 297.2 ± 0.9 K | Solid-liquid equilibrium temperature (20000 kPa): 302.2 ± 0.9 K | Solid-liquid equilibrium temperature (39900 kPa): 307 ± 0.9 K | Solid-liquid equilibrium temperature (60000 kPa): 311.5 ± 0.9 K | Solid-liquid equilibrium temperature (79900 kPa): 316 ± 0.9 K | Solid-liquid equilibrium temperature (100100 kPa): 320.3 ± 1 K

CCCCCCCCCCCC1CCCCC1 [undecane, 1-cyclohexyl-]
Solid-liquid equilibrium temperature (100 kPa): 272.4 ± 0.8 K | Solid-liquid equilibrium temperature (20000 kPa): 276.8 ± 0.8 K | Solid-liquid equilibrium temperature (40000 kPa): 281.3 ± 0.8 K | Solid-liquid equilibrium temperature (60000 kPa): 285.7 ± 0.9 K | Solid-liquid equilibrium temperature (80500 kPa): 289.9 ± 0.9 K | Solid-liquid equilibrium temperature (100000 kPa): 293.9 ± 0.9 K

Reference: the NIST ThermoML archive (doi:10.1021/je600575r)
